Measured values published in ChEMBL document CHEMBL1141014, “Design and synthesis of a bis(cycloisodityrosine) analogue of RA-VII, an antitumor bicyclic hexapeptide” (Bioorg Med Chem Lett, 2008).
≈ marks a conversion by molar mass, not a printed value.

System: P388
Assay: Cytotoxicity against mouse P388 cells
Type: functional, cell-based

| SMILES | IC50 |
| --- | --- |
| COc1ccc(C[C@H]2C(=O)N[C@@H](C)C(=O)N(C)[C@H]3Cc4ccc(cc4)Oc4cc(ccc4OC)C[C@@H](C(=O)N[C@H](C)C(=O)N[C@@H](C)C(=O)N2C)N(C)C3=O)cc1 | 0.0015 µg/mL (≈ 0.00195 µM) |
| COc1ccc2cc1Oc1ccc(cc1)C[C@@H]1NC(=O)[C@@H](C)NC(=O)[C@@H]3Cc4ccc(OC)c(c4)Oc4ccc(cc4)C[C@@H](C(=O)N3C)N(C)C(=O)[C@H](C)NC(=O)[C@H](C2)NC1=O | 7.5 µg/mL (≈ 8.86 µM) |
